Assay results as given in BindingDB's records for patent US20240190875 (Changchun Genescience Pharmaceutical Co., 2024).

Each compound was assayed against Growth hormone secretagogue receptor type 1 (Homo sapiens, UniProt Q92847) (assay: Determination of Human GHSR Agonist Activity).
Text: This method was used to determine the agonism effect of the compound of the invention on the activity of human GHSR protein expressed in human GHSR/CHO stable cell line.

Chain of Growth hormone secretagogue receptor type 1 (Q92847 whole entry): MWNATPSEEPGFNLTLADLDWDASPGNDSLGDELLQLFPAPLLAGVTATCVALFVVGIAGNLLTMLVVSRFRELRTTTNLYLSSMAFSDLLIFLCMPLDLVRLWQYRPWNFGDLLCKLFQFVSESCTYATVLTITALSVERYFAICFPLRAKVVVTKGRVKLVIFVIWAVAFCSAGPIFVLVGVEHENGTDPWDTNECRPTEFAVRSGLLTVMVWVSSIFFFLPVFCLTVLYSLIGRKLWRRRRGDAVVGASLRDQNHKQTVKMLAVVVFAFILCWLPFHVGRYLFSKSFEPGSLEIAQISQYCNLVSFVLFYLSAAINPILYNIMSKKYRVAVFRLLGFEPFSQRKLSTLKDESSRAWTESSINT

EC50	SMILES
15.6 nM	CC(C)(NC(=O)[C@@H](N)CCC(N)=O)C(=O)N[C@H](COCc1ccccc1)C(=O)N1CCC2(CC1)CN(S(C)(=O)=O)c1ccccc12 [US20240190875, Example 1]
9.8 nM	CC(C)(NC(=O)CN)C(=O)N[C@H](COCc1ccccc1)C(=O)N1CCC2(CC1)CN(S(C)(=O)=O)c1ccccc12 [US20240190875, Example 16]
24.3 nM	CC(=O)/C=C(/C)NC(C)(C)C(=O)N[C@H](COCc1ccccc1)C(=O)N1CCC2(CC1)CN(S(C)(=O)=O)c1ccccc12 [US20240190875, Example 19]

Second part, the compound before the results:

SMILES	EC50
CC(C)C(=O)OCOC(=O)NC(C)(C)C(=O)N[C@H](COCc1ccccc1)C(=O)N1CCC2(CC1)CN(S(C)(=O)=O)c1ccccc12 [US20240190875, Example 15]	4.3 nM
Cc1oc(=O)oc1COC(=O)NC(C)(C)C(=O)N[C@H](COCc1ccccc1)C(=O)N1CCC2(CC1)CN(S(C)(=O)=O)c1ccccc12 [US20240190875, Example 17]	24.5 nM
C[n+]1cccc(C(=O)NC(C)(C)C(=O)N[C@H](COCc2ccccc2)C(=O)N2CCC3(CC2)CN(S(C)(=O)=O)c2ccccc23)c1 [US20240190875, Example 18]	15.1 nM
CC(C)(C)C(=O)OCOC(=O)NC(C)(C)C(=O)N[C@H](COCc1ccccc1)C(=O)N1CCC2(CC1)CN(S(C)(=O)=O)c1ccccc12 [US20240190875, Example 21]	18.3 nM
CC(=O)OCOC(=O)NC(C)(C)C(=O)N[C@H](COCc1ccccc1)C(=O)N1CCC2(CC1)CN(S(C)(=O)=O)c1ccccc12 [US20240190875, Example 22]	9.3 nM
